Source: US20210400967A1, “COMPOSITIONS COMPRISING PYRIDINE CARBOXYLATE HERBICIDES WITH GLYPHOSATE OR GLUFOSINATE” (Corteva Agriscience LLC, priority 2018, published 2021)

Tests used:
Assay type in all cases: in vivo
[1] = tested on: Helianthus annuus (common sunflower); assay: Greenhouse postemergence herbicidal effect, common sunflower (HELAN); details: Example 5, 20-22 d
Description: (§1) Greenhouse Trial Methodology—Evaluation of Postemergence Herbicidal Effect
(§2) Seeds of the desired test plant species were planted in a 90:10% v/v (volume/volume) mixture of PRO-MIX® BX (Premier Tech Horticulture, Quakertown, Pa., USA) and PROFILE® GREENS GRADE™ (Profile Products LLC, Buffalo Grove, Ill., USA) planting mixture, which typically has a pH of 5.2 to 6.2 and an organic matter content of at least 50 percent, in plastic pots with a surface area of 103.2 square centimeters (cm^2). In some aspects, to ensure good germination and healthy plants, a fungicide treatment and/or other chemical or physical treatment was applied. The plants were grown for 7-36 days (d) in a greenhouse with an approximate 14-hour (h) photo-period which was maintained at about 23° C. during the day and 22° C. during the night. Nutrients and water were added on a regular basis and supplemental lighting was provided with overhead metal halide 1000-Watt lamps as necessary. The plants were employed for testing when they reached the second or third true leaf stage.
(§3) Emulsifiable concentrates of each of each pyridine carboxylate herbicide (Compound A or Compound B) were prepared at 100 grams acid equivalent per liter (g ae/L). The emulsifiable concentrates also included a safener, cloquintocet-mexyl, at 120 grams active ingredient per liter (g ai/L). […]
(§4) The treated plants and control plants were placed in a greenhouse as described above and watered by sub-irrigation to prevent wash-off of the test compounds. After 20-22 d, the condition of the test plants as compared with that of the control plants was determined visually and scored on a scale of 0 to 100 percent where 0 corresponds to no injury and 100 corresponds to complete kill.

[2] = tested on: Amaranthus retroflexus (pigweed); assay: Greenhouse postemergence herbicidal effect, pigweed (AMARE); details: 20-22 d; for % visual injury: Example 1
Description: as §1, §2
(§5) Emulsifiable concentrates of each of each pyridine carboxylate herbicide (Compound A or Compound B) were prepared at 100 grams acid equivalent per liter (g ae/L). The emulsifiable concentrates also included a safener, cloquintocet-mexyl, at 120 grams active ingredient per liter (g ai/L). An aliquot of each emulsifiable concentrate was placed in a 25 mL glass vial and diluted with an aqueous mixture of 1.25% (v/v) ACTIROB® B esterified rapeseed oil (Bayer Crop Science, Research Triangle Park, N.C., USA) or MSO® Concentrate with LECI-TECH® methylated soybean oil (Loveland Products, Loveland, Colo., USA) to obtain concentrated stock solutions at the highest application rate for each herbicide, based upon a 12 milliliter (mL) application volume at a rate of 187 liters per hectare (L/ha). The concentrated stock solutions were further diluted with an aqueous mixture of 1.25% v/v ACTIROB® B or MSO® Concentrate with LECI-TECH® to obtain stock solutions at reduced application rates for each herbicide. Spray solutions of the herbicide combinations (Compound A or Compound B plus glyphosate or glufosinate) were prepared by adding weighed amounts or aliquots of the glyphosate or glufosinate to the stock solutions of Compound A or Compound B to form 12-mL spray solutions in two-way combinations.
(§6) The spray solutions were applied to the plant material with an overhead Mandel track sprayer equipped with 8002E nozzles calibrated to deliver 187 L/ha over an application area of 0.503 square meters (m^2) at a spray height of 18 inches (43 centimeters (cm)) above the average plant canopy. Control plants were sprayed in the same manner with the solvent blank. All pyridine carboxylate herbicide (component a) application rates are given as “g ae/ha” and all glyphosate or glufosinate (component b) application rates are given as “g ai/ha.”
as §4

[3] = tested on: Chenopodium album L. (common lambsquarters); assay: Greenhouse postemergence herbicidal effect, common lambsquarters (CHEAL); details: 20-22 d; for % visual injury: Example 1
Description: as §1, §2, §5, §6, §4

[4] = tested on: Hordeum vulgare (spring barley); assay: Greenhouse postemergence phytotoxicity on crop, spring barley (HORVS); details: 20-22 d; for % visual injury: Example 1
Description: as §1, §2, §5, §6, §4

Kochia scoparia (kochia) = assay: Greenhouse postemergence herbicidal effect, kochia (KCHSC); details: 20-22 d; for % visual injury: Example 1
Description: as §1, §2, §5, §6, §4

[5] = tested on: Sorghum vulgare (grain sorghum); assay: Greenhouse postemergence herbicidal effect, grain sorghum (SORVU); details: Example 5, 20-22 d
Description: as §1, §2, §3, §4

[6] = tested on: Matricaria chamomilla (wild chamomile); assay: Greenhouse postemergence herbicidal effect, wild chamomile (MATCH); details: 20-22 d; for % visual injury: Example 1
Description: as §1, §2, §5, §6, §4

[7] = tested on: Cyperus esculentus (nutsedge); assay: Greenhouse postemergence herbicidal effect, nutsedge (CYPES); details: Example 5, 20-22 d
Description: as §1, §2, §3, §4

[8] = tested on: Viola tricolor (wild pansy); assay: Greenhouse postemergence herbicidal effect, wild pansy (VIOTR); details: Example 5, 20-22 d
Description: as §1, §2, §5, §6, §4

[9] = tested on: Cirsium arvense (Canadian thistle); assay: Greenhouse postemergence herbicidal effect, Canadian thistle (CIRAR); details: 20-22 d; for % visual injury: Example 1
Description: as §1, §2, §5, §6, §4

[10] = tested on: Triticum aestivum (spring wheat); assay: Greenhouse postemergence phytotoxicity on crop, spring wheat (TRZAS); details: 20-22 d; for % visual injury: Example 1
Description: as §1, §2, §5, §6, §4

[11] = tested on: Polygonum convolvulus (wild buckwheat); assay: Greenhouse postemergence herbicidal effect, wild buckwheat (POLCO); details: 20-22 d; for % visual injury: Example 1
Description: as §1, §2, §5, §6, §4

[12] = tested on: Sinapis arvensis (wild mustard); assay: Greenhouse postemergence herbicidal effect, wild mustard (SINAR); details: 20-22 d; for % visual injury: Example 1
Description: as §1, §2, §5, §6, §4

[13] = tested on: Euphorbia heterophylla (poinsettia); assay: Greenhouse postemergence herbicidal effect, poinsettia (EPHHL); details: Example 5, 20-22 d
Description: as §1, §2, §3, §4

[14] = tested on: Salsola kali (Russian thistle); assay: Greenhouse postemergence herbicidal effect, Russian thistle (SASKR); details: 20-22 d; for % visual injury: Example 1
Description: as §1, §2, §5, §6, §4

[15] = tested on: Rumex obtusifolius (broad-leaf dock); assay: Greenhouse postemergence herbicidal effect, broad-leaf dock (RUMOB); details: Example 5, 20-22 d
Description: as §1, §2, §3, §4

[16] = tested on: Stellaria media (chickweed); assay: Greenhouse postemergence herbicidal effect, chickweed (STEME); details: Example 5, 20-22 d
Description: as §1, §2, §3, §4

[17] = tested on: Brassica napus (winter rape); assay: Greenhouse postemergence herbicidal effect, winter rape (BRSNW); details: 20-22 d; for % visual injury: Example 1
Description: as §1, §2, §5, §6, §4

[18] = tested on: Echinochloa crus-galli (barnyardgrass); assay: Greenhouse postemergence herbicidal effect, barnyardgrass (ECHCG); details: Example 5, 20-22 d
Description: as §1, §2, §3, §4

[19] = tested on: Ipomoea hederacea (ivyleaf morningglory); assay: Greenhouse postemergence herbicidal effect, ivyleaf morningglory (IPOHE); details: Example 5, 20-22 d
Description: as §1, §2, §3, §4

[20] = Example 2, Compound A 7.5 g ae/ha alone
[21] = Example 2, Compound A 10 g ae/ha alone
[22] = Example 6, Compound A 7.5 g ae/ha alone
[23] = Example 6, Compound A 10 g ae/ha alone
[24] = Example 5, Compound A 7.5 g ae/ha alone
[25] = Example 5, Compound A 10 g ae/ha alone

N#CCOC(=O)c1nc(-c2ccc3cc[nH]c3c2F)c(F)c(N)c1Cl [Compound A, cyanomethyl 4-amino-3-chloro-5-fluoro-6-(7-fluoro-1H-indol-6-yl)pyridine-2-carboxylate]
% visual injury, Obs ([1]; Compound A 7.5 g ae/ha alone): 90%
% visual injury, Obs ([1]; Compound A 10 g ae/ha alone): 89%
% visual injury ([2]; Compound A 7.5 g ae/ha alone): 78%
% visual injury ([2]; Compound A 10 g ae/ha alone): 73%
% visual injury, Obs [2, 20]: 90%
% visual injury, Obs [2, 21]: 85%
% visual injury, Obs [2, 22]: 90%
% visual injury, Obs [2, 23]: 85%
% visual injury ([3]; Compound A 7.5 g ae/ha alone): 88%
% visual injury ([3]; Compound A 10 g ae/ha alone): 93%
% visual injury, Obs [3, 20]: 75%
% visual injury, Obs [3, 21]: 80%
% visual injury, Obs [3, 22]: 75%
% visual injury, Obs [3, 23]: 80%
% visual injury ([4]; Compound A 7.5 g ae/ha alone): 0%
% visual injury ([4]; Compound A 10 g ae/ha alone): 0%
% visual injury, Obs [4, 20]: 0%
% visual injury, Obs [4, 21]: 0%
% visual injury, Obs [4, 22]: 0%
% visual injury, Obs [4, 23]: 0%
% visual injury (Kochia scoparia (kochia); Compound A 7.5 g ae/ha alone): 63%
% visual injury (Kochia scoparia (kochia); Compound A 10 g ae/ha alone): 63%
% visual injury, Obs (Kochia scoparia (kochia); [20]): 70%
% visual injury, Obs (Kochia scoparia (kochia); [21]): 70%
% visual injury, Obs (Kochia scoparia (kochia); [24]): 75%
% visual injury, Obs (Kochia scoparia (kochia); [25]): 73%
% visual injury, Obs (Kochia scoparia (kochia); [22]): 70%
% visual injury, Obs (Kochia scoparia (kochia); [23]): 70%
% visual injury, Obs ([5]; Compound A 7.5 g ae/ha alone): 0%
% visual injury, Obs ([5]; Compound A 10 g ae/ha alone): 0%
% visual injury ([6]; Compound A 7.5 g ae/ha alone): 20%
% visual injury ([6]; Compound A 10 g ae/ha alone): 30%
% visual injury, Obs [6, 20]: 10%
% visual injury, Obs [6, 21]: 20%
% visual injury, Obs [6, 22]: 10%
% visual injury, Obs [6, 23]: 20%
% visual injury, Obs ([7]; Compound A 7.5 g ae/ha alone): 30%
% visual injury, Obs ([7]; Compound A 10 g ae/ha alone): 8%
% visual injury, Obs ([8]; Compound A 7.5 g ae/ha alone): 38%
% visual injury, Obs ([8]; Compound A 10 g ae/ha alone): 15%
% visual injury ([9]; Compound A 7.5 g ae/ha alone): 30%
% visual injury ([9]; Compound A 10 g ae/ha alone): 40%
% visual injury, Obs [9, 20]: 40%
% visual injury, Obs [9, 21]: 55%
% visual injury, Obs [9, 24]: 40%
% visual injury, Obs [9, 25]: 60%
% visual injury, Obs [9, 22]: 40%
% visual injury, Obs [9, 23]: 55%
% visual injury ([10]; Compound A 7.5 g ae/ha alone): 0%
% visual injury ([10]; Compound A 10 g ae/ha alone): 0%
% visual injury, Obs [10, 20]: 0%
% visual injury, Obs [10, 21]: 0%
% visual injury, Obs [10, 22]: 0%
% visual injury, Obs [10, 23]: 0%
% visual injury ([11]; Compound A 7.5 g ae/ha alone): 78%
% visual injury ([11]; Compound A 10 g ae/ha alone): 93%
% visual injury, Obs [11, 20]: 30%
% visual injury, Obs [11, 21]: 43%
% visual injury, Obs [11, 24]: 83%
% visual injury, Obs [11, 25]: 93%
% visual injury, Obs [11, 22]: 30%
% visual injury, Obs [11, 23]: 43%
% visual injury ([12]; Compound A 7.5 g ae/ha alone): 88%
% visual injury ([12]; Compound A 10 g ae/ha alone): 90%
% visual injury, Obs [12, 20]: 83%
% visual injury, Obs [12, 21]: 88%
% visual injury, Obs [12, 22]: 83%
% visual injury, Obs [12, 23]: 88%
% visual injury, Obs ([13]; Compound A 7.5 g ae/ha alone): 97%
% visual injury, Obs ([13]; Compound A 10 g ae/ha alone): 97%
% visual injury ([14]; Compound A 7.5 g ae/ha alone): 60%
% visual injury ([14]; Compound A 10 g ae/ha alone): 63%
% visual injury, Obs [14, 20]: 60%
% visual injury, Obs [14, 21]: 63%
% visual injury, Obs [14, 22]: 60%
% visual injury, Obs [14, 23]: 63%
% visual injury, Obs ([15]; Compound A 7.5 g ae/ha alone): 20%
% visual injury, Obs ([15]; Compound A 10 g ae/ha alone): 13%
% visual injury, Obs ([16]; Compound A 7.5 g ae/ha alone): 89%
% visual injury, Obs ([16]; Compound A 10 g ae/ha alone): 90%
% visual injury ([17]; Compound A 7.5 g ae/ha alone): 35%
% visual injury ([17]; Compound A 10 g ae/ha alone): 43%
% visual injury, Obs [17, 20]: 35%
% visual injury, Obs [17, 21]: 40%
% visual injury, Obs [17, 22]: 35%
% visual injury, Obs [17, 23]: 40%
% visual injury, Obs ([18]; Compound A 7.5 g ae/ha alone): 88%
% visual injury, Obs ([18]; Compound A 10 g ae/ha alone): 80%
% visual injury, Obs ([19]; Compound A 7.5 g ae/ha alone): 20%
% visual injury, Obs ([19]; Compound A 10 g ae/ha alone): 25%
